# System: 293T cells expressing CD
# Experiment: immunopurification of labeled mRNAs with anti-BrdU antibody and RT-PCR, CD-expressing 293T cells
# Assay type: cell-based, human
# Description: FIG. 1a-f. Labeling and purification of RNA by CD expression and 5-FC treatment. FIG. 1a—Schematic diagram showing RNA labeling using CD and 5-FC. FIG. 1b—Chemical reactions steps involved in the labeling of RNA using CD and 5-FC. The dotted arrow indicates the intermediary steps that are not shown. FIG. 1c Relative fold enrichment of mRNA isolated by Flura-tagging. 293T cells expressing CD or unlabeled controls were treated with 5-FC for the indicated times, labeled mRNAs were immunopurified using anti-BrdU antibody, and the levels of labeled mRNAs of the indicated genes relative to corresponding non-immunoprecipitated inputs normalized to immunopurified mRNAs from cells not expressing CD were quantified by RT-PCR. […] FIG. 1d—Schematic diagram of the constructs used for inducible expression of UPRT and/or CD, and the experimental design. Transduced RFP+MDA231 cells were mixed with unlabeled cells, treated with doxycycline for 24 h and then 5-FC for 4-12 h. Cells were analyzed by immunofluorescence or harvested for RNA analysis. FIG. 1e—Flura-tagging in MDA231 cells in vitro. […] The fold enrichment of the indicated representative human genes over mouse housekeeping genes (mHPRT1 and mLDH1) was measured by RT-PCR (n=3±S.E.). […]
# Next, we determined whether 5-FU-labeled mRNAs can be specifically and efficiently isolated by immunoprecipitation. […]
compound,measurement,setting,value
"Nc1nc(=O)[nH]cc1F [5-FC, 5-fluorocytosine]",time for which labeling continued to increase,,up to 24 h
same,time after treatment at which labeled mRNAs were detectable,three representative genes,2 h
